In patent publication US12371428B2 (Exelixis, Inc., priority 2019, dated 2025):

Key:
[1] = target: Human MET (residues 956-1390) (Homo sapiens (Human), UniProt P08581); test: Human Met kinase assay, HTRF KinEase (Example D-2); type: biochemical; conditions: protocol of Example D-2 (other compounds); read-out: c-Met IC50
Outline: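 IC50 values come from a 4-parameter logistic fit of the […] fluorescence ratio, set between DMSO (100%) and reference compound at 1 μM (0%). Reactions held MET 956-1390 at 0.1 ng/well, ATP at Km, biotinylated peptide, 5 mM MgCl2, 1 mM MnCl2, 1 mM DTT and 3% DMSO, and ran 40 min at room temperature before streptavidin-XL665/Eu-antibody detection.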

[2] = target: KDR (phospho-KDR, VEGF165-stimulated HUVEC cells) (Homo sapiens (Human), UniProt P35968); test: KDR autophosphorylation ELISA in HUVEC cells (Example G); type: cell-based; conditions: cellular activity; KDR autophosphorylation ELISA in HUVEC cells
KDR (phospho-KDR, VEGF165-stimulated HUVEC cells), sequence (P35968 20-1356): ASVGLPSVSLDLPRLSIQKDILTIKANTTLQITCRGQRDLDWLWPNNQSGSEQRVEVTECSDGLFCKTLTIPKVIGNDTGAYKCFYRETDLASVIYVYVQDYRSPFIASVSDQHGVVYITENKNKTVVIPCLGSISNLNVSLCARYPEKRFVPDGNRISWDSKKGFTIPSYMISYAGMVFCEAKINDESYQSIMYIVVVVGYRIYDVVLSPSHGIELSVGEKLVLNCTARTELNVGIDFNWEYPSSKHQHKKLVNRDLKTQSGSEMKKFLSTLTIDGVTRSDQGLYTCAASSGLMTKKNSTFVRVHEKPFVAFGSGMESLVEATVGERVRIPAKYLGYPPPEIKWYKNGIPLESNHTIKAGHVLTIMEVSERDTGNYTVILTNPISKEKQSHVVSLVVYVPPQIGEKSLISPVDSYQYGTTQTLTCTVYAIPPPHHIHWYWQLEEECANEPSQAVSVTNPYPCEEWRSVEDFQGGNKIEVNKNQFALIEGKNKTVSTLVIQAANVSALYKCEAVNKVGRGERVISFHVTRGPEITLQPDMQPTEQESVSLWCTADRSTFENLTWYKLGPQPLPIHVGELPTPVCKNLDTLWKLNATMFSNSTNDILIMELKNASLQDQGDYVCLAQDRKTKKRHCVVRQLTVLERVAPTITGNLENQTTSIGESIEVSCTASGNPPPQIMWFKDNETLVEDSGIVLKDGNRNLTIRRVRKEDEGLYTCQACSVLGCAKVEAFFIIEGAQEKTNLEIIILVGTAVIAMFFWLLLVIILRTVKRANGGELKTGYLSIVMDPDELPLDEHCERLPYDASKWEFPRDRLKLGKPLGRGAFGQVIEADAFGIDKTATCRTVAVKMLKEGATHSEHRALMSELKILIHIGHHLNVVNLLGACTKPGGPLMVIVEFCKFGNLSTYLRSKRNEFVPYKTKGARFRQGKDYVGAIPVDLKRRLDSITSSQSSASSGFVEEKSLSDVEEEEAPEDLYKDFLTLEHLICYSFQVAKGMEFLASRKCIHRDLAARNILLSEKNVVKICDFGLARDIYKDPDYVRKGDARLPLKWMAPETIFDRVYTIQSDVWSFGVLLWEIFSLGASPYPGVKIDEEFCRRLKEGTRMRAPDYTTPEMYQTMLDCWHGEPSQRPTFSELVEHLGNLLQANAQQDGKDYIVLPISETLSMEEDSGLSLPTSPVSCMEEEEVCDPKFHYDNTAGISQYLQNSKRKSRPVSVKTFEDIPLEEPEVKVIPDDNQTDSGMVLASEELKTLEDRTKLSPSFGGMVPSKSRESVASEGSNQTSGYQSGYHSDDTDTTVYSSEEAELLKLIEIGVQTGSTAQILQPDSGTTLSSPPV
Outline: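 HUVEC cells, serum-starved 24 h, were treated 1 h with an 8-point compound dilution (0.3% DMSO) and then stimulated with 100 ng/mL VEGF165 for 5 min. Phospho-KDR in lysates was quantified by sandwich ELISA against a phospho-KDR standard. IC50 from a 4-parameter logistic fit, normalised between stimulated DMSO and unstimulated controls.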

Human MET (residues 956-1390), sequence (P08581 956-1390): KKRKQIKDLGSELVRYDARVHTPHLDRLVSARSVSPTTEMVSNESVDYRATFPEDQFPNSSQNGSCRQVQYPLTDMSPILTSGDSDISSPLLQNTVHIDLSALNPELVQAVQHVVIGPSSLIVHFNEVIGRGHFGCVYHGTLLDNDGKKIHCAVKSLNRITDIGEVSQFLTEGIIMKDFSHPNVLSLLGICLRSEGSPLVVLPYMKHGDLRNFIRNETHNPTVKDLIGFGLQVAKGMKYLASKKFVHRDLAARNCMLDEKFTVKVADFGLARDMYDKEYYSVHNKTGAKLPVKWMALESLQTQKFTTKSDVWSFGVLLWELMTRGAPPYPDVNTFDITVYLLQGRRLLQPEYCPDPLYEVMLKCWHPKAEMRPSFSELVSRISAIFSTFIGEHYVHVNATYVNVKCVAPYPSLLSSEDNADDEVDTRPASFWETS

Compound | IC50 [1] | IC50 [2]
COc1ccc2c(Oc3ccc(NC(=O)c4cn(C(C)C)c(C)c(-c5ccc(F)cc5)c4=O)cc3F)ccnc2c1 [Compound 106, N-[3-Fluoro-4-(7-methoxyquinolin-4-yl)oxyphenyl]-5-(4-fluorophenyl)-6-methyl-4-oxo-1-propan-2-ylpyridine-3-carboxamide] | < 100 nM | 100 to 300 nM
COc1cc2nccc(Oc3ccc(NC(=O)c4cnc(C)c(-c5ccc(F)cc5)c4O)cc3F)c2cc1OC [Compound 109, N-[4-(6,7-Dimethoxyquinolin-4-yl)oxy-3-fluorophenyl]-5-(4-fluorophenyl)-4-hydroxy-6-methylpyridine-3-carboxamide] | < 100 nM | < 100 nM
CCn1cc(C(=O)Nc2ccc(Oc3ccnc4cc(OC)c(OC)nc34)c(F)c2)c(=O)c(-c2ccc(F)cc2)c1 [Compound 116, N-[4-[(6,7-Dimethoxy-1,5-naphthyridin-4-yl)oxy]-3-fluorophenyl]-1-ethyl-5-(4-fluorophenyl)-4-oxopyridine-3-carboxamide] | < 100 nM | < 100 nM
COc1cc2nccc(Oc3ccc(NC(=O)c4c(C)ncn(-c5ccc(F)cc5)c4=O)cc3F)c2nc1OC [Compound 98, N-[4-[(6,7-Dimethoxy-1,5-naphthyridin-4-yl)oxy]-3-fluorophenyl]-1-(4-fluorophenyl)-4-methyl-6-oxopyrimidine-5-carboxamide] | < 100 nM | < 100 nM
COc1cnc2c(Oc3ccc(NC(=O)c4cn(C)c(C)c(-c5ccc(F)cc5)c4=O)cc3)ccnc2c1 [Compound 111, 5-(4-Fluorophenyl)-N-[4-[(7-methoxy-1,5-naphthyridin-4-yl)oxy]phenyl]-1,6-dimethyl-4-oxopyridine-3-carboxamide] | < 100 nM | > 300 nM
CCn1cc(C(=O)Nc2ccc(Oc3ccnc4cc(OC)ccc34)c(F)c2)c(=O)c(-c2ccc(F)cc2)c1C [Compound 107, 1-Ethyl-N-[3-fluoro-4-(7-methoxyquinolin-4-yl)oxyphenyl]-5-(4-fluorophenyl)-6-methyl-4-oxopyridine-3-carboxamide] | < 100 nM | 100 to 300 nM
COc1cc2nccc(Oc3ccc(NC(=O)c4cnc(C)n(-c5ccc(F)cc5)c4=O)cc3F)c2nc1OC [Compound 97, N-[4-[(6,7-Dimethoxy-1,5-naphthyridin-4-yl)oxy]-3-fluorophenyl]-1-(4-fluorophenyl)-2-methyl-6-oxopyrimidine-5-carboxamide] | < 100 nM | < 100 nM
COc1cnc2c(Oc3ccc(NC(=O)c4cn(C)cc(-c5ccc(F)cc5)c4=O)cc3F)ccnc2c1 [Compound 112, N-[3-Fluoro-4-[(7-methoxy-1,5-naphthyridin-4-yl)oxy]phenyl]-5-(4-fluorophenyl)-1-methyl-4-oxopyridine-3-carboxamide] | < 100 nM | > 300 nM
COc1cc2nccc(Oc3ccc(NC(=O)c4c(C)nc(C)n(-c5ccc(F)cc5)c4=O)cc3F)c2nc1OC [Compound 101, N-[4-[(6,7-Dimethoxy-1,5-naphthyridin-4-yl)oxy]-3-fluorophenyl]-1-(4-fluorophenyl)-2,4-dimethyl-6-oxopyrimidine-5-carboxamide] | < 100 nM | < 100 nM
COc1ccc2c(Oc3ccc(NC(=O)c4cnc(C)c(-c5ccc(F)cc5)c4O)cc3F)ccnc2c1 [Compound 105, N-[3-Fluoro-4-(7-methoxyquinolin-4-yl)oxyphenyl]-5-(4-fluorophenyl)-4-hydroxy-6-methylpyridine-3-carboxamide] | < 100 nM | < 100 nM
COc1cc2nccc(Oc3ccc(NC(=O)c4cn(C(C)C)c(C)c(-c5ccc(F)cc5)c4=O)cc3)c2nc1OC [Compound 115, N-[4-[(6,7-Dimethoxy-1,5-naphthyridin-4-yl)oxy]phenyl]-5-(4-fluorophenyl)-6-methyl-4-oxo-1-propan-2-ylpyridine-3-carboxamide] | < 100 nM | > 300 nM
COc1cc2nccc(Oc3ccc(NC(=O)c4c[nH]c(=O)n(-c5ccc(F)cc5)c4=O)cc3F)c2nc1OC [Compound 102, N-[4-[(6,7-Dimethoxy-1,5-naphthyridin-4-yl)oxy]-3-fluorophenyl]-3-(4-fluorophenyl)-2,4-dioxo-1H-pyrimidine-5-carboxamide] | < 100 nM | < 100 nM
COc1ccc2nccc(Oc3ccc(NC(=O)c4cn(C)c(C)c(-c5ccc(F)cc5)c4=O)cc3F)c2n1 [Compound 113, N-[3-Fluoro-4-[(6-methoxy-1,5-naphthyridin-4-yl)oxy]phenyl]-5-(4-fluorophenyl)-1,6-dimethyl-4-oxopyridine-3-carboxamide] | 100 to 300 nM | > 300 nM
COc1ccc2c(Oc3ccc(NC(=O)c4cnc(C)c(-c5ccc(F)cc5)c4O)cc3)ccnc2c1 [Compound 108, 5-(4-Fluorophenyl)-4-hydroxy-N-[4-(7-methoxyquinolin-4-yl)oxyphenyl]-6-methylpyridine-3-carboxamide] | < 100 nM | < 100 nM
COc1cc2nccc(Oc3ccc(NC(=O)c4cn(CCO)cc(-c5ccc(F)cc5)c4=O)cc3F)c2nc1OC [Compound 117, N-[4-[(6,7-Dimethoxy-1,5-naphthyridin-4-yl)oxy]-3-fluorophenyl]-5-(4-fluorophenyl)-1-(2-hydroxyethyl)-4-oxopyridine-3-carboxamide] | < 100 nM | < 100 nM
COc1cc2nccc(Oc3ccc(NC(=O)c4cncc(-c5ccc(F)cc5)c4O)cc3)c2nc1OC [Compound 118, N-[4-[(6,7-Dimethoxy-1,5-naphthyridin-4-yl)oxy]phenyl]-5-(4-fluorophenyl)-4-hydroxypyridine-3-carboxamide] | < 100 nM | < 100 nM
COc1cc2nccc(Oc3ccc(NC(=O)c4cnc(N(C)C)n(-c5ccc(F)cc5)c4=O)cc3F)c2nc1OC [Compound 100, N-[4-[(6,7-Dimethoxy-1,5-naphthyridin-4-yl)oxy]-3-fluorophenyl]-2-(dimethylamino)-1-(4-fluorophenyl)-6-oxopyrimidine-5-carboxamide] | < 100 nM | < 100 nM
